Data: US20090312336A1, “DIHYDROPTERIDINE COMPOUNDS AS ANTI PROLIFERATIVE AGENTS” (ASTRAZENECA AB, priority 2006, published 2009)
Read-outs that look alike come from different tables or passages of the source.

Key:
recombinant Plk1 = molecular target: T1, recombinant Plk1 (Homo sapiens, UniProt P53350); experiment: In vitro Plk1 enzyme assay (SPA); format: biochemical
T1 construct: The full-length Plk1 protein is expressed in insect cells as an N-terminal 6His tag fusion; 6His (N); made in house; host or cells: insect cells (Plk1); E. coli (GST-Cdc25C substrate)
Source text: The assay uses Scintillation Proximity Assay (SPA) technology (Antonsson et al., Analytical Biochemistry, 1999, 267: 294-299) to determine the ability of test compounds to inhibit phosphorylation by recombinant Plk1. The full-length Plk1 protein is expressed in insect cells as an N-terminal 6His tag fusion and purified by standard Nickel chelate purification techniques using the His tag.
The amino terminal fragment of Cdc25C (encoding residues 1-165) is expressed in E. coli as a GST fusion and purified using the GST tag by standard purification techniques.
Test compounds were prepared as 10 mM stock solutions in dimethyl sulphoxide (DMSO) and diluted into water as required to give a range of final assay concentrations. Aliquots (5 μl) of each compound dilution were dispensed into a well of a 384-well flat bottom white polystyrene plate (Matrix, Catalogue No. 4316). A 35 μl mixture of recombinant purified Plk1 enzyme (12 ng/well), purified GST-Cdc25C (150 ng/well), adenosine triphosphate (ATP; 64 nM), ^33P-labelled adenosine triphosphate (^33P-ATP; 60 nCi/well) in a buffer solution [comprising 50 mM HEPES pH7.5 buffer, 10 mM manganese chloride (MnCl2), 1 mM dithiothreitol (DTT), 1 mg/ml bovine serum albumin (BSA), 100 μM sodium vanadate (Na3VO4), 100 μM sodium fluoride (NaF) and 10 mM sodium glycerophosphate] was added and the reactions incubated at ambient temperature for 90 minutes.
Reactions were stopped by addition of EDTA (110 mM) and the Cdc25C substrate captured via its GST tag to anti-GST antibody (Molecular Probes, Cat No A-5800) coated Protein A PVT SPA beads (Amersham Biosciences, Catalogue No. RPQ0019; 250 μg/well) in 50 mM HEPES pH7.5 buffer containing 0.05% (w/v) sodium azide and incubated for up to 2 hours, followed by the addition of 20 μl of 4M caesium chloride (final assay concentration of 1M). Plates were then left in the dark overnight before counting on a Packard TopCount NXT.
Radiolabelled phosphorylated substrate is formed in situ as a result of Plk1 mediated phosphorylation. The SPA beads contain a scintillant that can be stimulated to emit light. This stimulation only occurs when a radiolabelled phosphorylated substrate is bound to the surface of the coated SPA bead causing the emission of blue light that can be measured on a scintillation counter. Accordingly, the extent of Plk1 mediated Cdc25C phosphorylation was assessed. The raw assay data were then analysed by non-linear regression analysis and Plk1 enzyme inhibition for a given test compound is expressed as an IC50 value.

[1] = system: human colon tumour cell line HT29; experiment: Cellular assay: phosphohistone H3 mitotic marker in HT29 cells; format: cell-based; settings: HT-29, 24 h, phosphohistone H3 staining
Procedure: Chromosome condensation in mitosis is accompanied by phosphorylation of histone H3 on serine 10. Dephosphorylation begins in anaphase and ends at early telophase, thus histone H3 serine 10 phosphorylation acts as an excellent mitotic marker and is used to determine the ability of compounds of the present invention to block cells in mitosis.
Cells of the human colon tumour cell line HT29 were seeded into 96 well black plates (Costar, Catalogue No 3904) in phenol red free Dulbecco's Modified Eagles Medium (DMEM) supplemented with 10% (v/v) FCS and 1% (v/v) L-Glutamine and incubated overnight at 37° C. […] Cells were again washed with PBS and incubated with 50 μl secondary antibody (1:1000 Alexa Fluor 488 goat anti-rabbit (Molecular Probes Cat No A-11008) and Hoechst (1:10000) diluted in PBS 0.05% (v/v) Tween 20 and left for 1 hour at room temperature in the dark. Cells were washed with PBS then covered with fresh PBS and stored at 4° C. until analysis. Images are acquired and analysed in an automated manner using the Cellomics ArrayScan II or VTi. In this assay both hoechst and phosphohistone H3 staining are measured. Hoechst staining generates a valid cell count while phosphohistone H3 staining determines the number of mitotic cells. […] The raw assay data were analysed by non-linear regression analysis and used to determine an IC50 value for each compound.

[2] = Plk1 enzyme, class symbols for IC50, read-out: Kinase Inhibition

T1 sequence (P53350 whole entry, the tested form may be a part): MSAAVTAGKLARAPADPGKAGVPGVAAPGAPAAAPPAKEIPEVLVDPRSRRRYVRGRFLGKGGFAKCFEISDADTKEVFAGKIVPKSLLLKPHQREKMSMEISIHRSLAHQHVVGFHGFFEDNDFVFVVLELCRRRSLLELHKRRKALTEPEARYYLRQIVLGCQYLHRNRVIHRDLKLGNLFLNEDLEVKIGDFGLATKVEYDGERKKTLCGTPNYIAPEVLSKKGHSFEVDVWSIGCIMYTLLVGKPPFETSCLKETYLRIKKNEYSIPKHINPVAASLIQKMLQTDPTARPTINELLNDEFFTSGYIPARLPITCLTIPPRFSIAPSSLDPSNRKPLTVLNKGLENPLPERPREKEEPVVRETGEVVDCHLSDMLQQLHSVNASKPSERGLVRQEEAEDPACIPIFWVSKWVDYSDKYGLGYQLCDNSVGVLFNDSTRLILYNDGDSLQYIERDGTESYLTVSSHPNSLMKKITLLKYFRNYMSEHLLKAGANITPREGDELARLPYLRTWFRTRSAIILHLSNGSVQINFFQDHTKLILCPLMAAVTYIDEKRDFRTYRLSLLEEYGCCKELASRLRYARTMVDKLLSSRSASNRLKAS

Row | Compound | IC50 (recombinant Plk1; [2]) [µM] | IC50 (recombinant Plk1; Plk1 enzyme assay, read-out: IC50 value in the enzyme assay) [µM] | IC50 [1] [nM]
1 | CC[C@@H]1CN(CC)c2cnc(Nc3ccc(C(=O)NC4CCN(C)CC4)cc3OC)nc2N1C1CCCC1 [Example 5, 4-[[(7R)-8-Cyclopentyl-5,7-diethyl-6,7-dihydropteridin-2-yl]amino]-3-methoxy-N-(1-methyl-4-piperidyl)benzamide] | < 3 | – | –
2 | CC[C@@H]1CN(C)c2cnc(Nc3ccc(CNC4CCN(C)CC4)c(F)c3)nc2N1C1CCCC1 [Example 4, (7R)-8-Cyclopentyl-7-ethyl-N-[3-fluoro-4-[[(1-methyl-4-piperidyl)amino]methyl]phenyl]-5-methyl-6,7-dihydropteridin-2-amine] | 3 to 6 | – | –
3 | CC[C@@H]1CN(C)c2cnc(Nc3ccc(C(=O)NC4CCN(C)CC4)cc3OC)nc2N1C1CCCC1 [Example 1, 4-[[(7R)-8-Cyclopentyl-7-ethyl-5-methyl-6,7-dihydropteridin-2-yl]amino]-3-methoxy-N-(1-methyl-4-piperidyl)benzamide] | < 3 | – | –
4 | CC[C@@H]1CN(C)c2cnc(Nc3ccc(C(=O)NCC(C)(C)CN(C)C)cc3OC)nc2N1C1CCCC1 [Example 2, 4-[[(7R)-8-Cyclopentyl-7-ethyl-5-methyl-6,7-dihydropteridin-2-yl]amino]-N-(3-dimethylamino-2,2-dimethyl-propyl)-3-methoxy-benzamide] | < 3 | – | –
5 | COc1cc(C(=O)NC2CCN(C)CC2)ccc1Nc1ncc2c(n1)N(C1CCCC1)[C@H](C1CC1)CN2C [Example 6, 4-{[(7R)-8-Cyclopentyl-7-cyclopropyl-5-methyl-5,6,7,8-tetrahydropteridin-2-yl]amino}-3-methoxy-N-(1-methylpiperidin-4-yl)benzamide] | < 3 | 0.699 | 256
6 | CCOc1cc(C(=O)NC2CCN(C)CC2)ccc1Nc1ncc2c(n1)N(C1CCCC1)[C@H](CC)CN2C [Example 8, 4-[[(7R)-8-Cyclopentyl-7-ethyl-5-methyl-6,7-dihydropteridin-2-yl]amino]-3-ethoxy-N-(1-methyl-4-piperidyl)benzamide] | < 3 | – | –
7 | CC[C@@H]1CN(C)c2cnc(Nc3ccc(CNCC(C)(C)CN(C)C)cc3OC)nc2N1C1CCCC1 [Example 3, N-[[4-[[(7R)-8-Cyclopentyl-7-ethyl-5-methyl-6,7-dihydropteridin-2-yl]amino]-3-methoxy-phenyl]methyl]-N′,N′,2,2-tetramethyl-propane-1,3-diamine] | 6 to 15 | – | –
8 | CCC[C@@H]1CN(C)c2cnc(Nc3ccc(C(=O)NC4CCN(C)CC4)cc3OC)nc2N1C1CCCC1 [Example 7, 4-{[(7R)-8-Cyclopentyl-5-methyl-7-propyl-5,6,7,8-tetrahydropteridin-2-yl]amino}-3-methoxy-N-(1-methylpiperidin-4-yl)benzamide] | < 3 | – | –
